Laboratory results: ChEMBL document CHEMBL1146347, “Carinatumins A-C, new alkaloids from Lycopodium carinatum inhibiting acetylcholinesterase” (Bioorg Med Chem, 2007)

Target: T1, Acetylcholinesterase (Bos taurus, UniProt P23795)
T1 sequence (P23795 whole entry): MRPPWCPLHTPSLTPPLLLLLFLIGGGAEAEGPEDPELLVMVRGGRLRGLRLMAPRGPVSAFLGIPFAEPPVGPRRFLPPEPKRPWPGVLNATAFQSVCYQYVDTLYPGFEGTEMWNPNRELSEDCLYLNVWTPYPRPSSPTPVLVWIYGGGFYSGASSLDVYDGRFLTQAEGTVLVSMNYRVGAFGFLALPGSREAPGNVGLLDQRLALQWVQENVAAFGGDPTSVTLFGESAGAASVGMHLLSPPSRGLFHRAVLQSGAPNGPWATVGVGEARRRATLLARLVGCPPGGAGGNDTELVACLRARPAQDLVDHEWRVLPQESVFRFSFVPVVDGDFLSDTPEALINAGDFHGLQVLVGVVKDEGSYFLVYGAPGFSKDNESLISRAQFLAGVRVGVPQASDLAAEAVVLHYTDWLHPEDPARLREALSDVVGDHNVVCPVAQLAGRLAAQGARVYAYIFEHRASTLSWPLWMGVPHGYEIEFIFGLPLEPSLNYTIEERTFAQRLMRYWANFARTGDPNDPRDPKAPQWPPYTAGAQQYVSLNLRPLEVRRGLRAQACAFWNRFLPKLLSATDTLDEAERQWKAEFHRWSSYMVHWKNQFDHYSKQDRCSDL
Assay: Inhibition of bovine erythrocyte acetylcholinesterase

Going from `CC1=C[C@H]2Cc3[nH]c(=O)ccc3[C@](N)(C1)/C2=C/CO` to `CC1=C[C@H]2Cc3[nH]c(=O)ccc3[C@]3(C1)NCC[C@@H](O)[C@H]23` [CARINATUMINS B (2)], the IC50 rises from 4.6 µM to 7 µM (1.5-fold). The first is the more potent here.

With `C[C@H]1C[C@@H](CC2=[N+]([O-])CCCC2)[C@@H]2CCCN[C@H]2C1` the IC50 was greater than 100 µM.
